Literature values in patent publication US20060258708A1, “Method for treating Parkinson's disease and other neurological diseases” (priority 2005, published 2006).

Legend:
[1] = humans
[2] = racemic thalidomide, animals
[3] = tested on: tumor necrosis factor alpha production by stimulated monocytes

For O=C1CCC(N2C(=O)c3ccccc3C2=O)C(=O)N1 (racemic) [Thalidomide, N-phthalidoglutarimide], the maximal blood concentration ([1]; 100 to 200 mg ingested) is listed as 0.9 to 1.5 mg/L, the “time at which maximal blood concentration is attained” value ([1]; 100 to 200 mg ingested) is listed as 4 to 6 h and the oral absorption ([1]; orally administered) is listed as “poorly absorbed”. The “toxicity in a series of animal studies” value [2] was “has not been toxic” and the “effect on tumor necrosis factor alpha production” value [3] was “inhibit”.
